From article PMC11912224, “A general approach for activity-based protein profiling of oxidoreductases with redox-differentiated diarylhalonium warheads” (Chemical Science, 2025)

Columns and labels:
Experiment in all cases: covalent labelling, streptavidin enrichment, LC-MS/MS
Conditions in all cases: 30 uM probe, 1 h, mouse liver pieces
[1] = biological target: T1, aldehyde oxidase 1 (AOX1) (Mus musculus, UniProt O54754)
T1 construct: native, in intact mouse liver pieces
T1 sequence (O54754 1-1333): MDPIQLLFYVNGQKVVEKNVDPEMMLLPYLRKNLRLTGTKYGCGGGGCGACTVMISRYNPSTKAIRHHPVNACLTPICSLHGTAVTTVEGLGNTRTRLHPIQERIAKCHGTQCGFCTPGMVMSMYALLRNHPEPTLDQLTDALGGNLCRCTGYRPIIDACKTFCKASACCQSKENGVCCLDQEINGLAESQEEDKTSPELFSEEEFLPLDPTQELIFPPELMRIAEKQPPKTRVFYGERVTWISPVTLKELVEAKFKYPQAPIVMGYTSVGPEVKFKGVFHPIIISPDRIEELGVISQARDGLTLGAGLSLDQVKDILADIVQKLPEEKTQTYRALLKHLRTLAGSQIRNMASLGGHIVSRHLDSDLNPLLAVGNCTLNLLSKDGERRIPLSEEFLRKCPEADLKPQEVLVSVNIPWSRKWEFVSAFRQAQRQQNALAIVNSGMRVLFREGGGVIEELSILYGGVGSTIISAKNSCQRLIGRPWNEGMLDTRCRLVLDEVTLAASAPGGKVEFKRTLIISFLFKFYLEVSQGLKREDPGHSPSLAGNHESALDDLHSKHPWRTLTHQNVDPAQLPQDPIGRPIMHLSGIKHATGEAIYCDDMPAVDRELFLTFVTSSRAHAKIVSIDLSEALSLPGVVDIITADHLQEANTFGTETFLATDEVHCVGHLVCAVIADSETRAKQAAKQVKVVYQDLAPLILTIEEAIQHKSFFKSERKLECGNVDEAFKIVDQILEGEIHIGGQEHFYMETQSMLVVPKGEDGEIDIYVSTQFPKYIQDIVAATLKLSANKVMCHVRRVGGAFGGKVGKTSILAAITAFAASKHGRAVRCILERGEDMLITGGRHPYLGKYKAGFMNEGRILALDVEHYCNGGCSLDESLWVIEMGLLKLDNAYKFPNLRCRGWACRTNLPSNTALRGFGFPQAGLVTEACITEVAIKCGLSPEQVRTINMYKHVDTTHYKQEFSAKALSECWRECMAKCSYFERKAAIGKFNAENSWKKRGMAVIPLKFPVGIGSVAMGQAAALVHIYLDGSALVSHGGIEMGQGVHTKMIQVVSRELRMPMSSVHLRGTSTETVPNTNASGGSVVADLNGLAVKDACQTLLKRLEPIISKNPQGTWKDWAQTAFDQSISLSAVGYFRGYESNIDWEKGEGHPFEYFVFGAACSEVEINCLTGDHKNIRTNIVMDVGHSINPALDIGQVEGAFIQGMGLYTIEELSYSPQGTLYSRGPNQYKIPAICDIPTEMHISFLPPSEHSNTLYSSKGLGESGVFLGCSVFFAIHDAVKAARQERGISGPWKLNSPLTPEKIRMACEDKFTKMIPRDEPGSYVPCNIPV

[2] = biological target: T2, monoamine oxidase A (MAOA) (Mus musculus, UniProt Q64133)
T2 construct: native, in intact mouse liver pieces
T2 sequence (Q64133 1-526): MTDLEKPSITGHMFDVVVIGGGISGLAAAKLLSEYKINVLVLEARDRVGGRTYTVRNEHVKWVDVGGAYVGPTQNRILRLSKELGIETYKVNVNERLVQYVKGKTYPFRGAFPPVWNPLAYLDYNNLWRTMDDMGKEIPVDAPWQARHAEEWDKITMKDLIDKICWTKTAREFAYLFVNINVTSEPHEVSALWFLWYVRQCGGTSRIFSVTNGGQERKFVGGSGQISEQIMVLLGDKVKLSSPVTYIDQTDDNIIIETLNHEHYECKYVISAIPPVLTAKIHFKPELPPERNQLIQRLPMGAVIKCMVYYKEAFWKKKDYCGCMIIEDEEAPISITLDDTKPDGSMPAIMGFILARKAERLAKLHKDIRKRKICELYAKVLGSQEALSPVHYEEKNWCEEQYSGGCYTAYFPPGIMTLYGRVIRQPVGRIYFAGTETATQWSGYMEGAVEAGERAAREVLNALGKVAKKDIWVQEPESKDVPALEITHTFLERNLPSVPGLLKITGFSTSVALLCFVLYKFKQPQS

[3] = biological target: T3, glycerol-3-phosphate dehydrogenase mitochondrial (GPD2) (Mus musculus, UniProt Q64521)
T3 construct: native, in intact mouse liver pieces
T3 sequence (Q64521 43-727): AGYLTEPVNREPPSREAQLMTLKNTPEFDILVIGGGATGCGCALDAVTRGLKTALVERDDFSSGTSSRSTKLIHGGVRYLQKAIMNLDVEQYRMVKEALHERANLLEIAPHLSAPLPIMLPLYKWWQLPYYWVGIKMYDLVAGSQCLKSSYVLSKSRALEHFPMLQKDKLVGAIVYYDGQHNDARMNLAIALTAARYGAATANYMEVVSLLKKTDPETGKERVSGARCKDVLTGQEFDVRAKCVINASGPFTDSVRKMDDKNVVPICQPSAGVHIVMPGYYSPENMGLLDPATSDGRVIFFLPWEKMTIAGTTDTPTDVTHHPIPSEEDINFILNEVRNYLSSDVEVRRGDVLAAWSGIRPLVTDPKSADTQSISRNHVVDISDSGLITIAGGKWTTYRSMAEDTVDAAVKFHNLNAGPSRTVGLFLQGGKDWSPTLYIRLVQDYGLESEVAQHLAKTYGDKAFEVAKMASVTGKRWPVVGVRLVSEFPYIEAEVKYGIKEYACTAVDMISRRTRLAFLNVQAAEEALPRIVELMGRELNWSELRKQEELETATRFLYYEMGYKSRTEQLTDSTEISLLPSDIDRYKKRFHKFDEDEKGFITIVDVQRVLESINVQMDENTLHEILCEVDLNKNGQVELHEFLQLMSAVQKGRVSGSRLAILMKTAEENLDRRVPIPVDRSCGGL

CYP2D10 = biological target: T4, CYP2D10 (Mus musculus, UniProt P24456)
T4 construct: native, in intact mouse liver pieces
T4 sequence (P24456 1-504): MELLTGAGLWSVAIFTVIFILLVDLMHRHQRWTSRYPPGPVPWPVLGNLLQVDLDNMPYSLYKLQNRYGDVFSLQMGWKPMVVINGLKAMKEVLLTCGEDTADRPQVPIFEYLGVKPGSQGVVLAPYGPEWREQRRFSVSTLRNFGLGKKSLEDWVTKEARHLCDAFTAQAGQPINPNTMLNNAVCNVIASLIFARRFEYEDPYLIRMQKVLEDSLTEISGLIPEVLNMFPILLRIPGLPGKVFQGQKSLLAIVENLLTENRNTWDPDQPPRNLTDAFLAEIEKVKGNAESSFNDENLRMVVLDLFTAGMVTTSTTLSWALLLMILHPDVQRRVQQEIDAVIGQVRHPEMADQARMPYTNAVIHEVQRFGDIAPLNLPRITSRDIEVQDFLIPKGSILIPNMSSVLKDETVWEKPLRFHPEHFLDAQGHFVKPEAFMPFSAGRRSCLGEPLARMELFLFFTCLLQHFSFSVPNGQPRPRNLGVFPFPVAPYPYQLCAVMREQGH

[4] = biological target: T5, choline dehydrogenase (CHDH, mCHDH) (Mus musculus, UniProt Q8BJ64)
T5 construct: native, in intact mouse liver pieces
T5 sequence (Q8BJ64 35-596): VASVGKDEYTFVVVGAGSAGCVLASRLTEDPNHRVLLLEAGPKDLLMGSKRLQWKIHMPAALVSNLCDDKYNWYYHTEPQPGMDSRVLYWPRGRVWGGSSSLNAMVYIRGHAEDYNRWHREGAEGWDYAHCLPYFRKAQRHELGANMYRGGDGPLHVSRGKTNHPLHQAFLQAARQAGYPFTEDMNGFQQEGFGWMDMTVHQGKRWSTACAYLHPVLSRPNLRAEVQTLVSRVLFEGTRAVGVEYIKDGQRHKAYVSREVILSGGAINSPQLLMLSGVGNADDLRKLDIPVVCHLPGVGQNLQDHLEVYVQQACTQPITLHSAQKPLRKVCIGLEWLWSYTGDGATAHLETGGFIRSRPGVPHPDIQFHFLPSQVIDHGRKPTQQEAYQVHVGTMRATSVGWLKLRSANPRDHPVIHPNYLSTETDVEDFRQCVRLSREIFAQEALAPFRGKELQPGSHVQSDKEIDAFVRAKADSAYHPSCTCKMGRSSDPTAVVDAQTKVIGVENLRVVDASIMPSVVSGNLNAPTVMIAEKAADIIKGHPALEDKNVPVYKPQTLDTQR

In the case of `[N-]=[N+]=NCCCCCCCCCCNC(=O)c1ccc2c(c1)[I+]c1ccccc1-2` [3da, diphenyleneiodonium-based probe 3da], the “covalent labelling, streptavidin enrichment, LC-MS/MS” value (“covalent labelling” for short) [1] is reported as “five are oxidoreductases (CYP27A1, CYP2D10, CYP3A25, HMOX2, and AOX1)”.

With `[N-]=[N+]=NCCOCCOCCOCCNC(=O)c1ccc2c(c1)-c1ccccc1[Br+]2` [3fb, diphenylenebromonium probe 3fb] the “covalent labelling” value [2] was “MAOA exclusively by diarylbromonium probe 3fb”.

`[N-]=[N+]=NCCCCCCCCCCNC(=O)c1ccc2c(c1)[Br+]c1ccccc1-2` [3ga, diphenylenebromonium-based probe 3ga] was tested, and the “covalent labelling” value [3] was “GPD2 was exclusively enriched by diarylbromonium probe 3ga” and the “covalent labelling” value (CYP2D10) was “two significantly enriched CYP450s (CYP27A1, CYP2D10)”.

With `[N-]=[N+]=NCCCCCCCCCCNC(=O)c1ccc2c(c1)-c1ccccc1[Cl+]2` [3ha, diphenylenechloronium-based probe 3ha] the “covalent labelling” value [4] was “choline dehydrogenase (CHDH), which is similar to the bacterial choline oxidase”.
